Results on one compound are retold here after PMC12721191, “Oxidative hypoxia drives TGF-β1–induced fibrosis under normoxia” (Redox Biology, 2025).

Series [1] deals with BLM-induced pulmonary fibrosis. As to the kind of experiment: RT-qPCR of lung tissue in BLM-treated mice. The class given is in vivo, ICR mice. To be noted: BLM 30 mg/kg; ACF-2 10 mg/kg i.p. every 2 days or NIDB 60 mg/kg/day. On the procedure:
Total RNA (AccuPrep®) was reverse-transcribed and amplified with SYBR Green chemistry on a StepOnePlusTM system; relative expression was calculated by ΔΔCt. Male ICR mice received BLM (30 mg/kg, intratracheal). […] Total RNA was extracted from both cultured cells and mouse lung tissue using the AccuPrep® Universal RNA Extraction Kit. […] RT-qPCR was performed using iTaqTM Universal SYBR® Green Supermix on a StepOnePlusTM Real-Time PCR System. […] All animal studies were approved by the Institutional Animal Care and Use Committee of Jeju National University (Approval ID: 2024-0058) and conducted in compliance with institutional guidelines. Male ICR mice (6 weeks old, average body weight 27 g) were purchased from […] (South Korea) and housed under controlled temperature (22 ± 2 °C) and humidity (0.0 ± 15.0 %) on a 12 hr light-dark cycle with free access to food and water.

Series [2] is described as follows: Metabolic stability in pooled human liver microsomes. The class given is in vitro ADME. To be noted: with NADPH, 0–60 min, read-out: half-life (t1/2) in HLMs. The protocol: To initiate the reaction, NADPH generating system was added to the incubation samples and further incubated for specific time points (0, 5, 15, 30, 45, and 60 min). Then, sample aliquots were taken and terminated with cold acetonitrile.
For orientation: Microsomes from liver hold many membrane-bound enzymes, among them those of drug oxidation.

For series [3], the system named is A549. Kind of series: Western blot of HIF-1α, fibrosis and EMT markers in A549. It is filed as cell-based, human. (In general: A western blot detects proteins with antibodies after separation by electrophoresis.)
The subject of series [4] is colon. Kind of series: Colonic histopathology in the BLM mouse study. It is filed as in vivo, ICR mice. To be noted: BLM mice; ACF-2 10 mg/kg i.p. every 2 days or NIDB 60 mg/kg/day. The text has this:
Fixed left lung lobes were paraffin-embedded, sectioned (4 μm), and stained with H&E or MT. A blinded pathologist graded pulmonary fibrosis on the 1-8 Ashcroft scale; representative images illustrate typical lesions. Colon samples were processed by the swiss-roll method, stained with H&E, and scored for inflammation and erosion, which were combined into a composite histological score. All animal studies were approved by the Institutional Animal Care and Use Committee of Jeju National University (Approval ID: 2024-0058) and conducted in compliance with institutional guidelines. Male ICR mice (6 weeks old, average body weight 27 g) were purchased from […] (South Korea) and housed under controlled temperature (22 ± 2 °C) and humidity (0.0 ± 15.0 %) on a 12 hr light-dark cycle with free access to food and water. […] Colon tissue: Colons were harvested, flushed with 1xPBS, and prepared using the swiss-roll method before embedding in paraffin. Sections of 4 μm thickness were subjected to H&E staining as described above. Colonic injury was evaluated by two independent parameters: (i) inflammation score (0-3) and (ii) erosion score (0-3). A composite histological score was then calculated as the sum of inflammation and erosion scores for each sample.

In series [5] the test system is A549. Kind of series: MTT cytotoxicity assay. The class given is cell-based, human. To be noted: two cell lines including A549, up to 7 μM, with or without TGF-β1. On the procedure: Cells (8 × 10^3 per well, 96-well) were treated as indicated, incubated with 0.5 mg/mL MTT for 4 h, solubilized in DMSO, and read at 570 nm.
Cells were seeded at 8 × 10³ cells per well in 200 µL of medium in a 96-well plate. The next day, the medium was replaced with medium containing the test compound(s) at the desired concentration(s) and incubated for the specified duration. After the incubation, the medium was discarded and replaced with 0.5 mg/mL Thiazolyl Blue Tetrazolium Bromide in PBS. Following a 4 h incubation at 37 °C, the formazan crystals were dissolved in DMSO, and absorbance was measured at 570 nm using a SUNRISE™ microplate reader. The relative cell viability was calculated based on the optical density values.
A general note: Formazan colour is commonly taken as a measure of viable cells.

The target in series [6] is T1, CYP2C19 (Homo sapiens, UniProt P33261).
T1 construct: tissue Xenotech H0630; host or cells: pooled human liver microsomes
Kind of series: Cytochrome P450 inhibition assay in HLMs. It is filed as in vitro ADME. To be noted: pooled human liver microsomes, probe S-mephenytoin (4-hydroxylation), up to 50 μM. The protocol: (§1) All experiments were performed in triplicate. Phenacetin O-deethylase, coumarin hydroxylase, bupropion hydroxylase, amodiaquine N-deethylase, tolbutamide 4-hydroxylase, S-mephenytoin hydroxylase, dextromethorphan O-demethylase, chlorozoxazone 6-hydroxylase, and midazolam 1’-hydroxylase activities were determined as probe activities for CYP1A2, CYP2A6, CYP2B6, CYP2C8, CYP2C9, CYP2C19, CYP2D6, CYP2E1, and CYP3A, respectively, using cocktail incubation and tandem mass spectrometry, as described previously^2,3.

For series [7], the target named is T2, CYP2C8 (Homo sapiens, UniProt P10632).
T2 construct: tissue Xenotech H0630; host or cells: pooled human liver microsomes
T2 sequence (P10632 1-490): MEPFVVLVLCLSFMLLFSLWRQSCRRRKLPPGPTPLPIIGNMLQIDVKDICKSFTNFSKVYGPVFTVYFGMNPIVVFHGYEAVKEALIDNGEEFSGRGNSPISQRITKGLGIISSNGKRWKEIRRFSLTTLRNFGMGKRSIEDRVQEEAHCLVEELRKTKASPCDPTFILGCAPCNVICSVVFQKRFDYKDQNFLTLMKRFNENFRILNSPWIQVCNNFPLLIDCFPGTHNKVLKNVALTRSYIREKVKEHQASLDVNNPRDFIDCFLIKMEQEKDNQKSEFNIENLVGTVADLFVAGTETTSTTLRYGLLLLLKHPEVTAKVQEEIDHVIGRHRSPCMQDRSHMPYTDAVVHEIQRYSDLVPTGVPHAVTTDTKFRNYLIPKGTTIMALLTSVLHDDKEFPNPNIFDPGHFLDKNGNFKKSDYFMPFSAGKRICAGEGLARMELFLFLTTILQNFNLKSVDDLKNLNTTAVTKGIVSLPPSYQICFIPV
As to the kind of experiment: Cytochrome P450 inhibition assay in HLMs. It is filed as in vitro ADME. To be noted: pooled human liver microsomes, probe amodiaquine (N-deethylation), up to 50 μM. The protocol:
as §1

Entries after “also recorded” stand apart in the source; their conditions may differ.

A word on the IC50: it is the point on the concentration scale where inhibition reaches its midpoint. High values mean weaker potency, low ones greater potency.

T1 sequence (P33261 whole entry): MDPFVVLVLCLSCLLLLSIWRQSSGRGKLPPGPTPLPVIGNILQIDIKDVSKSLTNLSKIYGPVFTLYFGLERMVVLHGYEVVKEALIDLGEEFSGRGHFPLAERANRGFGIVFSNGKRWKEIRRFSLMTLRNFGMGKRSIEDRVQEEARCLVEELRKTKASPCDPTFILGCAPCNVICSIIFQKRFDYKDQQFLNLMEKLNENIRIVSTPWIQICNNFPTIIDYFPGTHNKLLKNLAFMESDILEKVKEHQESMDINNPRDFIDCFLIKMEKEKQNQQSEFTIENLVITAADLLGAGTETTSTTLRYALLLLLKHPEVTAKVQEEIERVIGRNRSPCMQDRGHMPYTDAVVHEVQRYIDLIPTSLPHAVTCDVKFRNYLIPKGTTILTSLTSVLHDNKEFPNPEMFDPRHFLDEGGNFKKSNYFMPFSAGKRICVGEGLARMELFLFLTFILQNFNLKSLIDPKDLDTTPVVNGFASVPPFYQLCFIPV

Regarding `COc1ccc(-c2c(-c3ccc(O)c(OC)c3)oc3cc(OC)c(OC)cc3c2=O)cc1` [ACF-2], the “TGF-β1 (Tgfb1) expression in lung (RT-qPCR)” value in series [1] is given as “markedly reduced”. The half-life at 1 µM in series [2] is above 1 h. For the same compound, the “BLM-induced HIF-1α levels (Western blot)” value in series [3] (A549, BLM 15 μM, 10 h) is on record as “effectively suppressed”. In addition, the “fibronectin, α-SMA, N-cadherin (Western blot)” value in series [3] (A549, TGF-β1 24 h, ACF-2 7 μM) was “coordinated suppression of fibrosis markers (fibronectin, α-SMA) and EMT marker (N-cadherin)”. Moreover, in series [3] (A549, TGF-β1 24 h, ACF-2 co-treatment), the “COL3A1 and COL4A6 (Western blot)” value was “dose-dependent reduction of fibrosis markers COL3A1 and COL4A6”. The “composite histological score of colon (inflammation + erosion)” value in series [4] is given as “did not induce colonic inflammation or erosion”. For the same compound, the “cytotoxicity (MTT)” value in series [5] is “does not induce cellular cytotoxicity; also recorded: did not exhibit cytotoxic effects”. For the same compound, the IC50 in series [6] was found to be 8.05 µM; in series [7] it was 6.24 µM.
